# According to patent US10478437B2, “Combination therapy to enhance the anticancer efficacy of platinum drugs” (University of Pittsburgh-of the Commonwealth System of …, priority 2014, dated 2019):
# Where two headings read alike, the source gives them in different places.
# Legend:
# [1] = system: cisplatin-resistant ovarian cancer cell line A2780cis; assay: Caspase-3/7 activity assay (apoptotic cell death), compound alone or with cisplatin; type: cell-based, human; details: for caspase-3/7 activity (Lum), compound with cisplatin / caspase-3/7 activity (Lum), compound alone / caspase-3/7 activity (Lum) with compound and cisplatin (20 μM) / caspase-3/7 activity (Lum) with compound alone: 20 h; for caspase-3/7 activity (Lum) with compound and cisplatin (20 μM) / caspase-3/7 activity (Lum) with compound alone: Table 6; for caspase-3/7 activity (Lum) with compound alone: untreated cells 9 ± 1; for activity in the screen (Caspase-3/7 activity and microscopic examination), active / inactive: alone or in the presence of cisplatin
# Protocol: Cell proliferation was determined using a CyQUANT Direct Cell Proliferation Assay kit (Invitrogen), the activity of caspase-3/7 was measured using a Caspase-Glo 3/7 Assay Systems (Promega, Madison, Wis.), and the MTS calorimetric survival assay was performed using the CellTiter 96 AQueous One Solution Cell Proliferation Assay kit (Promega, Madison, Wis.), according to the manufacturer's instructions. The survival fractions were calculated after setting untreated control cells at 100%. The data were plotted and curve fitted using GraphPad Prism software. To quantify the number of cells with active caspase-3, cells were fixed with 4% paraformaldehyde (Electron microscopy sciences, Hatfield, Pa.), stained with Alexa Fluor-488 conjugated antibody against cleaved caspase-3 (Asp175) (Cell Signaling Technology, Danvers, Mass.) followed by flow cytometry. An FITC Annexin V Apoptosis Detection Kit (BD PharMingen, San Diego, Calif.) was used to quantify apoptotic cells, according to the manufacturer's instructions.
# A Caspase-3/7 assay was performed to evaluate the activity of the 36 compounds of FIG. 1 in vitro in the cisplatin-resistant ovarian cancer cell line, A2780cis, alone or in the presence of cisplatin. A microscopic examination of apoptotic morphologic changes was also carried out right before the measurement of Caspase-3/7 activity, in order to confirm that the data on the activation of the Caspase-3/7 following treatment is consistent with morphological change and reflects cell death.
# [2] = system: cisplatin-resistant ovarian cancer cell line A2780cis; assay: CellTiter-Blue cell viability assay, compound alone or with cisplatin or carboplatin, 24 h; type: cell-based, human; details: for Survival (%) of cells with compound and carboplatin (200 μM) / survival (%) of cells with compound and cisplatin (20 μM) / survival (%) of cells with compound alone / viability at 10 µM / viability at 20 µM / viability at 50 µM: 24 h; for viability at 10 µM / viability at 20 µM / viability at 50 µM: Homo sapiens, A2780cis, read-out: survival (%) of cells with compound alone
# Protocol: Data were expressed as mean±standard deviation. A Student's t test was used for the comparisons between the treatment with the combination of analogs with cisplatin and with analogs alone. P<0.05 was considered statistically significant. Combination index was calculated using CompuSyn software. A value of 0.3-0.7 for the combination index indicates synergism, 0.1-0.3 indicates strong synergism, and <0.1 indicates very strong synergism (Chou, 2006).
# To further validate the activity of the identified 11 active compounds (see FIG. 3), a CellTiter-Blue cell viability assay was performed with increasing concentrations (10 μM, 20 μM and 50 μM) of the disclosed compounds (see FIG. 4 and Table 5). Cisplatin resistant ovarian cancer cells (A2780cis) were treated with a disclosed compound alone, cisplatin alone or a combination of a compound with cisplatin for 24 h to determine the effects of the compounds on cell viability.
# Analysis of the effect of the disclosed compounds with another platinum-containing compound, carboplatin, was performed. A2780cis cells were treated with carboplatin alone or with the combination of carboplatin and the disclosed compounds at indicated concentrations for 24 h followed by the analysis of cell viability.
# [3] = Table 1, compound 20 μM with 20 μM cisplatin
# [4] = Table 1, compound 20 μM, mean ± S.D. of triplicates
# [5] = Table 3, compound 20 μM with 20 μM of cisplatin
# [6] = compound 10 μM + cisplatin 20 μM
# [7] = compound 20 μM + cisplatin 20 μM
# [8] = compound 10 μM, untreated cells = 100%
# [9] = compound 20 μM, untreated cells = 100%
# [10] = compound 50 μM + cisplatin 20 μM
# [11] = compound 50 μM, untreated cells = 100%
compound,measurement,setting,value
"COc1cc(-n2c(=S)[nH]c3ccccc3c2=O)c(Cl)cc1Cl [mdivi-1, reference compound]","caspase-3/7 activity (Lum), compound with cisplatin",[1]; [3],102 ± 3 Lum
same,"caspase-3/7 activity (Lum), compound alone",[1]; [4],28 ± 5 Lum
same,"caspase-3/7 activity (Lum), compound alone","[1]; Table 2, compound 20 μM",28 ± 5 Lum
same,"caspase-3/7 activity (Lum), compound with cisplatin",[1]; [5],80 ± 11 Lum
same,"caspase-3/7 activity (Lum), compound alone","[1]; Table 3, compound 20 μM",20 ± 3 Lum
same,"caspase-3/7 activity (Lum), compound alone","[1]; Table 4, compound 20 μM",20 ± 3 Lum
same,caspase-3/7 activity (Lum) with compound and cisplatin (20 μM),[1]; compound 5 μM + cisplatin 20 μM,22 ± 2 Lum
same,caspase-3/7 activity (Lum) with compound alone,[1]; compound 5 μM,10 ± 1 Lum
same,caspase-3/7 activity (Lum) with compound and cisplatin (20 μM),[1]; [6],24 ± 3 Lum
same,caspase-3/7 activity (Lum) with compound alone,[1]; compound 10 μM,10 ± 1 Lum
same,caspase-3/7 activity (Lum) with compound and cisplatin (20 μM),[1]; [7],84 ± 3 Lum
same,caspase-3/7 activity (Lum) with compound alone,[1]; compound 20 μM,24 ± 2 Lum
same,Survival (%) of cells with compound and carboplatin (200 μM),[2]; compound 10 μM + carboplatin 200 μM,92.6 ± 3.5%
same,survival (%) of cells with compound and cisplatin (20 μM),[2]; [6],87.4 ± 2.9%
same,survival (%) of cells with compound alone,[2]; [8],98.4 ± 2.4%
same,Survival (%) of cells with compound and carboplatin (200 μM),[2]; compound 20 μM + carboplatin 200 μM,75.1 ± 3.9%
same,survival (%) of cells with compound and cisplatin (20 μM),[2]; [7],39.2 ± 2.7%
same,survival (%) of cells with compound alone,[2]; [9],78.4 ± 3.8%
same,Survival (%) of cells with compound and carboplatin (200 μM),[2]; compound 50 μM + carboplatin 200 μM,40.6 ± 3.0%
same,survival (%) of cells with compound and cisplatin (20 μM),[2]; [10],26.3 ± 3.4%
same,survival (%) of cells with compound alone,[2]; [11],61.6 ± 4.4%
O=c1c2ccccc2[nH]c(=S)n1Cc1cccnc1 [Compound 1-4],"caspase-3/7 activity (Lum), compound with cisplatin",[1]; [3],93 ± 5 Lum
same,"caspase-3/7 activity (Lum), compound alone",[1]; [4],13 ± 1 Lum
same,"caspase-3/7 activity (Lum), compound alone","[1]; Table 2, compound 20 μM",13 ± 1 Lum
same,"activity in the screen (Caspase-3/7 activity and microscopic examination), active / inactive",[1]; in words,active
same,Caspase-3/7 activity upon combination with cisplatin compared to cisplatin alone or compound alone,[1]; in words,increase in Caspase-3/7 activity
same,viability at 10 µM,[2]; [8],95.9 ± 2.4%
same,viability at 20 µM,[2]; [9],95.6 ± 1.3%
same,viability at 50 µM,[2]; [11],91.8 ± 2.9%
same,survival (%) of cells with compound and cisplatin (20 μM),[2]; [6],89.8 ± 0.1%
same,survival (%) of cells with compound and cisplatin (20 μM),[2]; [7],61.2 ± 3.4%
same,survival (%) of cells with compound and cisplatin (20 μM),[2]; [10],20.9 ± 1.3%
O=C1NC(=S)NC(=O)C1=Cc1c[nH]c2ccccc12 [Compound 2-7],"caspase-3/7 activity (Lum), compound with cisplatin",[1]; [5],41 ± 3 Lum
same,"caspase-3/7 activity (Lum), compound alone","[1]; Table 3, compound 20 μM",25 ± 1 Lum
same,"caspase-3/7 activity (Lum), compound alone","[1]; Table 4, compound 20 μM",25 ± 1 Lum
same,"activity in the screen (Caspase-3/7 activity and microscopic examination), active / inactive",[1]; in words,active
same,viability at 10 µM,[2],97 ± 1.5%
same,viability at 20 µM,[2],93.3 ± 3.6%
same,viability at 50 µM,[2],47.2 ± 1.8%
same,survival (%) of cells with compound and cisplatin (20 μM),[2]; [6],91.9 ± 14.0%
same,survival (%) of cells with compound and cisplatin (20 μM),[2]; [7],76.1 ± 6.6%
same,survival (%) of cells with compound and cisplatin (20 μM),[2]; [10],39.4 ± 5.2%
Cc1cccc(-n2c(=S)[nH]c3cc(Cl)ccc3c2=O)c1C [Compound 1-21],"caspase-3/7 activity (Lum), compound with cisplatin",[1]; [3],90 ± 6 Lum
same,"caspase-3/7 activity (Lum), compound alone",[1]; [4],17 ± 3 Lum
same,"caspase-3/7 activity (Lum), compound alone","[1]; Table 2, compound 20 μM",17 ± 3 Lum
same,"activity in the screen (Caspase-3/7 activity and microscopic examination), active / inactive",[1]; in words,active
same,Caspase-3/7 activity upon combination with cisplatin compared to cisplatin alone or compound alone,[1]; in words,increase in Caspase-3/7 activity
same,viability at 10 µM,[2]; [8],102 ± 1.4%
same,viability at 20 µM,[2]; [9],100 ± 1.5%
same,viability at 50 µM,[2]; [11],84.9 ± 2.9%
same,survival (%) of cells with compound and cisplatin (20 μM),[2]; [6],90.8 ± 1.4%
same,survival (%) of cells with compound and cisplatin (20 μM),[2]; [7],63.1 ± 6.8%
same,survival (%) of cells with compound and cisplatin (20 μM),[2]; [10],26.7 ± 2.0%
CC(C)C(=O)NC(=S)Nc1nc2ccc(Cl)cc2s1 [Compound 2-33],"caspase-3/7 activity (Lum), compound with cisplatin",[1]; [5],23 ± 3 Lum
same,"caspase-3/7 activity (Lum), compound alone","[1]; Table 3, compound 20 μM",11 ± 2 Lum
same,"caspase-3/7 activity (Lum), compound alone","[1]; Table 4, compound 20 μM",11 ± 2 Lum
same,"activity in the screen (Caspase-3/7 activity and microscopic examination), active / inactive",[1]; in words,active
same,activity in the Caspase-3/7 activity assay,"[1]; in words, possibly interference with the assay system",lack of activity
same,viability at 10 µM,[2]; [8],84.8 ± 4.1%
same,viability at 20 µM,[2]; [9],77.9 ± 1.1%
same,viability at 50 µM,[2]; [11],65 ± 6.4%
same,survival (%) of cells with compound and cisplatin (20 μM),[2]; [6],92.5 ± 4.8%
same,survival (%) of cells with compound and cisplatin (20 μM),[2]; [7],70.4 ± 4.9%
same,survival (%) of cells with compound and cisplatin (20 μM),[2]; [10],58.6 ± 7.4%
same,response in the CellTiter-Blue cell viability assay,[2]; in words,positive response
O=C(NC(=S)NCCN1CCOCC1)c1ccc(F)cc1 [Compound 2-17],"caspase-3/7 activity (Lum), compound with cisplatin",[1]; [5],18 ± 1 Lum
same,"caspase-3/7 activity (Lum), compound alone","[1]; Table 3, compound 20 μM",7 ± 2 Lum
O=C(Nc1ccccc1)c1c(O)[nH]c(=S)[nH]c1=O [Compound 1-35],"caspase-3/7 activity (Lum), compound with cisplatin",[1]; [3],5 ± 1 Lum
same,"caspase-3/7 activity (Lum), compound alone",[1]; [4],2 ± 1 Lum
O=C(CNC(=S)NC(=O)c1ccco1)c1ccccc1 [Compound 2-12],"caspase-3/7 activity (Lum), compound with cisplatin",[1]; [5],18 ± 1 Lum
same,"caspase-3/7 activity (Lum), compound alone","[1]; Table 3, compound 20 μM",7 ± 1 Lum
CC(=O)Nn1c(=S)[nH]c2ccccc2c1=O [Compound 1-29],"caspase-3/7 activity (Lum), compound with cisplatin",[1]; [3],23 ± 1 Lum
same,"caspase-3/7 activity (Lum), compound alone",[1]; [4],15 ± 2 Lum
COc1ccc(C(C)=C2C(=O)NC(=S)NC2=O)cc1 [Compound 2-25],"caspase-3/7 activity (Lum), compound with cisplatin",[1]; [5],24 ± 2 Lum
same,"caspase-3/7 activity (Lum), compound alone","[1]; Table 3, compound 20 μM",6 ± 0 Lum
Cc1ccc(NC(=S)NC(=O)c2ccc(F)cc2)nc1 [Compound 2-23],"caspase-3/7 activity (Lum), compound with cisplatin",[1]; [5],22 ± 2 Lum
same,"caspase-3/7 activity (Lum), compound alone","[1]; Table 3, compound 20 μM",7 ± 0 Lum
same,"activity in the screen (Caspase-3/7 activity and microscopic examination), active / inactive",[1]; in words,inactive
Cc1[nH]c(=S)[nH]c(=O)c1CCC(=O)N1CCOCC1 [Compound 1-10],"caspase-3/7 activity (Lum), compound with cisplatin",[1]; [3],21 ± 2 Lum
same,"caspase-3/7 activity (Lum), compound alone",[1]; [4],14 ± 1 Lum
O=C(NC(=S)Nc1ccccc1N1CCOCC1)c1ccco1 [Compound 2-3],"caspase-3/7 activity (Lum), compound with cisplatin",[1]; [5],20 ± 1 Lum
same,"caspase-3/7 activity (Lum), compound alone","[1]; Table 3, compound 20 μM",8 ± 1 Lum
CCCN1C(=O)C(=C(C)NC2CCC(C)CC2)C(=O)NC1=S (stereo not shown) [Compound 2-27],"caspase-3/7 activity (Lum), compound with cisplatin",[1]; [5],19 ± 3 Lum
same,"caspase-3/7 activity (Lum), compound alone","[1]; Table 3, compound 20 μM",7 ± 1 Lum
C=CCn1c(=S)[nH]c2scc(-c3ccc(Oc4ccccc4)cc3)c2c1=O [Compound 1-15],"caspase-3/7 activity (Lum), compound with cisplatin",[1]; [3],28 ± 3 Lum
same,"caspase-3/7 activity (Lum), compound alone",[1]; [4],12 ± 2 Lum
same,"activity in the screen (Caspase-3/7 activity and microscopic examination), active / inactive",[1]; in words,inactive
O=C(NC(=S)NC1CCS(=O)(=O)C1)c1ccccc1 (stereo not shown) [Compound 2-14],"caspase-3/7 activity (Lum), compound with cisplatin",[1]; [5],21 ± 2 Lum
same,"caspase-3/7 activity (Lum), compound alone","[1]; Table 3, compound 20 μM",8 ± 1 Lum
CCOC(=O)c1ccccc1NC(=O)c1c(O)[nH]c(=S)[nH]c1=O [Compound 1-34],"caspase-3/7 activity (Lum), compound with cisplatin",[1]; [3],22 ± 3 Lum
same,"caspase-3/7 activity (Lum), compound alone",[1]; [4],12 ± 1 Lum
